Consider five molecules from US10065990B2, “Cyclic peptide compound, and preparation method, pharmaceutical composition and use thereof” (HANGZHOU GUANYU BIO-MEDICAL CO., LTD, priority 2013, dated 2018).

The target in experiment [1] is T1, HDAC7 (Homo sapiens, UniProt Q8WUI4).
T1 sequence (Q8WUI4 1-952): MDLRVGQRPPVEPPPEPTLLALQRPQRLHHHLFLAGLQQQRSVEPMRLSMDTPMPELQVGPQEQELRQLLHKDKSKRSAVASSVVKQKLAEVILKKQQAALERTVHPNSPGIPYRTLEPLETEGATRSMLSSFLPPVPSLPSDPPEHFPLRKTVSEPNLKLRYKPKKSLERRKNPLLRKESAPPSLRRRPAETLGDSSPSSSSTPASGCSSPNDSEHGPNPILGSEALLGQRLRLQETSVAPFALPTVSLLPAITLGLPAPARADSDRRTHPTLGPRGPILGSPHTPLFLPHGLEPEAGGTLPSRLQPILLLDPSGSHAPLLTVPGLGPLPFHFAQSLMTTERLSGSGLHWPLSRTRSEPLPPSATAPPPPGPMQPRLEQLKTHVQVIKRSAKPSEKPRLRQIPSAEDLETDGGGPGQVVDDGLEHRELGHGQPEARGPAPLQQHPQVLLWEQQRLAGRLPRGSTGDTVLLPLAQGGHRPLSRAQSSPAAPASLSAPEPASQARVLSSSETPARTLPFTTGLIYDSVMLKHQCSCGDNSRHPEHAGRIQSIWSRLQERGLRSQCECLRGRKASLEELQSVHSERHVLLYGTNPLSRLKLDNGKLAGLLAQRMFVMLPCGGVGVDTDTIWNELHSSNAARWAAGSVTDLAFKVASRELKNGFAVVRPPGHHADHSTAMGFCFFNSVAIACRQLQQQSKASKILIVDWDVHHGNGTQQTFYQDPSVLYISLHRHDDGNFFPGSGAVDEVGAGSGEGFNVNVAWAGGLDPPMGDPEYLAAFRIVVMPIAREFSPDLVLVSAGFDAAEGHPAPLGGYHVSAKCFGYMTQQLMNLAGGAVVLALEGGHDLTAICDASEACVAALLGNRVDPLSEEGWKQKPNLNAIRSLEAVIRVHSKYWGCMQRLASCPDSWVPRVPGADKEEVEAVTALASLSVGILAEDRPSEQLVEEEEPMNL
As to the kind of experiment: HDAC biochemical activity measurement (fluorescent substrate deacetylation).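 As to all read-outs here: fluorogenic deacetylation assay using acetyl-lysine substrate at 20 µM, enzyme and compound incubated 30 min at 37 °C, then developer added, fluorescence read at 360/460 nm.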 As to conditions: for IC50 HDAC7: 37° C. 30 minutes.

The subject of experiment [2] is A549 (human lung cancer cells). As to the kind of experiment: MTT cancer cell growth inhibition. The format is cell-based. As to conditions: Homo sapiens, A549, 72 h, A549 cells, MTT, 72 hours incubation; read-out: GI50 A54. Summed up: (§1)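 GI50 values come from MTT viability: after 72 h compound exposure (final 10^−5–10^−10 M, three wells each) of cells plated overnight at 1500/well in 10% FBS medium, MTT was given for 4 h. The DMSO-solubilised formazan was then measured at 570 nm.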

In experiment [3] the test system is BGC-823 (human gastric cancer cells). As to the kind of experiment: MTT cancer cell growth inhibition. The format is cell-based. To be noted: Homo sapiens, BGC-823, 72 h, BGC-823 cells, MTT, 72 hours incubation; read-out: GI50 BG. Summed up:
as §1

The test system of experiment [4] is Bel-7402 (human hepatoma cells). Nature of the experiment: MTT cancer cell growth inhibition. The format is cell-based. As to conditions: Homo sapiens, Bel-7402, 72 h, MTT, 72 hours incubation, Bel-7402 cells; read-out: GI50 Bel-7402. Summed up: as §1
Experiment [5] has as its system DU145 (human prostate cancer cells). Nature of the experiment: MTT cancer cell growth inhibition. The format is cell-based. As to conditions: Homo sapiens, DU-145, 72 h, DU145 cells, MTT, 72 hours incubation; read-out: GI50 Du1. Summed up: as §1
Experiment [6] concerns H1975 (non-small cell lung adenocarcinoma). Nature of the experiment: MTT cancer cell growth inhibition. The format is cell-based. As to conditions: Homo sapiens, NCI-H1975, 72 h, MTT, 72 hours incubation, H1975 cells; read-out: GI50 H1975. Summed up:
as §1

In experiment [7] the test system is HCC827 (human non-small cell lung cancer cells). As to the kind of experiment: MTT cancer cell growth inhibition. The experiment is classed as cell-based. As to conditions: Homo sapiens, HCC827, 72 h, MTT, 72 hours incubation, HCC827 cells; read-out: GI50 HCC827. Summed up: as §1
Experiment [8] has as its system HT1080 (human fibrosarcoma cells). Nature of the experiment: MTT cancer cell growth inhibition. The format is cell-based. To be noted: Homo sapiens, HT-1080, 72 h, HT1080 cells, MTT, 72 hours incubation; read-out: GI50 HT1. Summed up: as §1
Experiment [9] deals with Hela (human cervical cancer cells). Nature of the experiment: MTT cancer cell growth inhibition. The format is cell-based. To be noted: Homo sapiens, HeLa, 72 h, Hela cells, MTT, 72 hours incubation; read-out: GI50 Hela. Summed up:
as §1

Experiment [10] relates to Huh-7 (human hepatoma cells). As to the kind of experiment: MTT cancer cell growth inhibition. The format is cell-based. To be noted: Homo sapiens, Huh-7, 72 h, MTT, 72 hours incubation, Huh-7 cells; read-out: GI50 Huh-7. Summed up: as §1
Experiment [11] concerns K562 (human leukemia cells). As to the kind of experiment: MTT cancer cell growth inhibition. As to conditions: Homo sapiens, K562, 72 h, MTT, 72 hours incubation, K562 cells; read-out: GI50 K562. The format is cell-based. Summed up: as §1
In experiment [12] the test system is KBM-5 (human chronic myelogenous leukemia). Nature of the experiment: MTT cancer cell growth inhibition. The experiment is classed as cell-based. To be noted: Homo sapiens, KBM5, 72 h, MTT, 72 hours incubation, KBM-5 cells; read-out: GI50 KBM-5. Summed up: as §1
The subject of experiment [13] is KBM5-T315I (human chronic myelogenous leukemia). As to the kind of experiment: MTT cancer cell growth inhibition. The format is cell-based. As to conditions: Homo sapiens, 72 h, MTT, 72 hours incubation, KBM5-T315I cells; read-out: GI50 KBM5-T315I. Summed up:
as §1

For experiment [14], the system named is MCF-7 (human breast cancer cells). Nature of the experiment: MTT cancer cell growth inhibition. The format is cell-based. As to conditions: Homo sapiens, MCF7, 72 h, MCF-7 cells, 72 hours incubation, read-out: GI50 MCF. Summed up:
as §1

Experiment [15] deals with MDA-MB-231 (breast cancer cells). As to the kind of experiment: MTT cancer cell growth inhibition. The format is cell-based. To be noted: Homo sapiens, MDA-MB-231, 72 h, read-out: GI50 MDA-MB-231, MTT, 72 hours incubation, MDA-MB-231 cells. Summed up:
as §1

Experiment [16] deals with MOLT-4 (human acute lymphoblastic leukemia cells). As to the kind of experiment: MTT cancer cell growth inhibition. The experiment is classed as cell-based. As to conditions: Homo sapiens, MOLT-4, 72 h, MOLT-4 cells, MTT, 72 hours incubation; read-out: GI50 Mol. Summed up: as §1
The subject of experiment [17] is N-87 (human gastric cancer cells). Nature of the experiment: MTT cancer cell growth inhibition. The experiment is classed as cell-based. As to conditions: Homo sapiens, 72 h, MTT, 72 hours incubation, N-87 cells; read-out: GI50 N-87. Summed up:
as §1

Experiment [18] deals with PANC-1 (Pac-1, human pancreatic cancer cells). Nature of the experiment: MTT cancer cell growth inhibition. As to conditions: Homo sapiens, PANC-1, 72 h, PANC-1 cells, MTT, 72 hours incubation; read-out: GI50 PAN. The experiment is classed as cell-based. Summed up: as §1
Experiment [19] has as its system SGC-7901 (human gastric cancer cells). As to the kind of experiment: MTT cancer cell growth inhibition. The format is cell-based. To be noted: Homo sapiens, SGC-7901, 72 h, MTT, 72 hours incubation, SGC-7901 cells; read-out: GI50 SGC-7901. Summed up: as §1
For experiment [20], the system named is U937 (human leukemia cells). Nature of the experiment: MTT cancer cell growth inhibition. The experiment is classed as cell-based. As to conditions: Homo sapiens, U-937, 72 h, U937 cells, MTT, 72 hours incubation; read-out: GI50 U93. Summed up:
as §1

For experiment [21], the system named is lncap (prostate cancer cells). Nature of the experiment: MTT cancer cell growth inhibition. The format is cell-based. As to conditions: Homo sapiens, LNCaP, 72 h, lncap cells, MTT, 72 hours incubation; read-out: GI50 lnca. Summed up:
as §1

The GI50 is the concentration at which growth is held to half of that of the control. On to `C/C=C1\NC(=O)c2nc(ccc2SCC)CNC(=O)C[C@@H](/C=C/CCSC(=O)CCCCCC)OC(=O)[C@H](C(C)C)NC1=O` [Compound 250], for which, in experiment [1], the “IC50 (μM) HDAC7” value was “no activity”. The GI50 in experiment [2] was 40 nM; in experiment [3], 40 nM; in [4], 58 nM; in [5], 50 nM; in experiment [6], 38 nM; in [7], 45 nM. In addition, the GI50 was determined as 60 nM in experiment [8]; 70 nM in experiment [9]; 27 nM in experiment [10]; 27 nM in experiment [11]; 53 nM in [12]; 79 nM in experiment [13]. Further, the GI50 in [14] was found to be 40 nM; in [15], 21 nM; in [16], 30 nM; in [17], 43 nM; in experiment [18], 30 nM; in [19], 63 nM. The GI50 in [20] amounted to 80 nM; in experiment [21] it was 50 nM.

For `C/C=C1\NC(=O)c2nc(ccc2SC)CNC(=O)C[C@@H](/C=C/CCS)OC(=O)[C@H](CC)NC1=O` [Compound 229], the “IC50 HDAC7” value in experiment [1] is given as “no activity”. Further, the GI50 worked out at 60 nM in experiment [2]; 740 nM in experiment [3]; 37 nM in experiment [4]; 50 nM in experiment [5]; 38 nM in experiment [6]; 77 nM in experiment [7]. Moreover, the GI50 in experiment [8] was determined as 10 nM; in experiment [9], 30 nM; in [10] it was 28 nM; in [11], 86 nM; in [12], 71 nM; in experiment [13], 53 nM. The GI50 in [14] was determined as 70 nM; in experiment [15] it was 23 nM; in experiment [16] it was 30 nM; in experiment [17], 77 nM; in experiment [18], 50 nM; in [19] it was 91 nM. Besides, the GI50 in [20] is 20 nM; in [21] it was 30 nM.

Consider `C/C=C1\NC(=O)c2cc(SC)cc(n2)CNC(=O)C[C@@H](/C=C/CCSC(C)=O)OC(=O)[C@H](Cc2cccc3ccccc23)NC1=O` [Compound 199], for which the “IC50 HDAC7” value in experiment [1] is “no activity”. For the same molecule, the GI50 stood at 40 nM in [2]; 90 nM in [3]; 42 nM in experiment [4]; 50 nM in experiment [5]; 78 nM in [6]; 47 nM in experiment [7]. The GI50 in [8] stood at 40 nM; in experiment [9] it was 30 nM; in experiment [10] it was 35 nM; in experiment [11] it was 81 nM; in [12], 17 nM; in experiment [13], 29 nM. For the same molecule, the GI50 in experiment [14] was determined as 80 nM; in experiment [15], 51 nM; in [16] it was 30 nM; in experiment [17], 27 nM; in [18], 10 nM; in experiment [19] it was 67 nM. Also, the GI50 stood at 30 nM in [20] and 40 nM in [21].

With `C/C=C1\NC(=O)c2nc(ccc2SC)CNC(=O)C[C@@H](/C=C/CCSC(C)=O)OC(=O)[C@H](CCCCN)NC1=O` [Compound 192], in [1], the “IC50 HDAC7” value was “no activity”. Moreover, the GI50 in experiment [2] worked out at 90 nM; in experiment [3], 70 nM; in experiment [4], 54 nM; in experiment [5], 80 nM; in [6], 35 nM; in [7], 37 nM. In addition, the concentration for 50% growth inhibition (GI50) in experiment [8] came to 50 nM; in experiment [9], 290 nM; in experiment [10] it was 71 nM; in experiment [11], 23 nM; in experiment [12], 21 nM; in experiment [13], 29 nM. Further, the GI50 in experiment [14] was 50 nM; in experiment [15], 83 nM; in [16] it was 90 nM; in [17], 32 nM; in experiment [18], 60 nM; in experiment [19], 99 nM. The GI50 in [20] and in [21] was 20 nM throughout.

Regarding `C/C=C1\NC(=O)c2nc(ccc2SC)CNC(=O)C[C@@H](/C=C/CCSC(C)=O)OC(=O)[C@H](CC)NC1=O` [Compound 177], in [1], the “IC50 HDAC7” value was “no activity”. Also, the GI50 came out at 20 nM in experiment [2]; 40 nM in [3]; 84 nM in experiment [4]; 60 nM in [5]; 83 nM in experiment [6]; 33 nM in experiment [7]. Further, the GI50 in experiment [8] is 30 nM; in experiment [9], 100 nM; in experiment [10] it was 35 nM; in [11] it was 29 nM; in experiment [12] it was 80 nM; in experiment [13] it was 13 nM. For the same molecule, the GI50 in [14] was found to be 50 nM; in [15], 49 nM; in experiment [16], 60 nM; in [17] it was 37 nM; in [18], 20 nM; in experiment [19], 39 nM. Besides, the GI50 in experiment [20] was determined as 60 nM; in [21], 10 nM.
